{"source": "patent EP0602465A1", "about": "“Use of CN substituted benzimidazoles” (BAYER AG, priority 1992, dated 1994)", "experiment_in_all_cases": "Coccidiosis in chickens: oocyst excretion in faeces (McMaster chamber)", "type_in_all_cases": "in vivo", "settings_in_all_cases": "3 days before until 8 days after infection, chicks 9 to 11 days old, 40 000 sporulated oocysts, 100 % = no effect, 0 % = full effect", "key": {"[1]": {"test_system": "E.acervulina"}, "[2]": {"test_system": "E. tenella"}, "[3]": {"test_system": "E. maxima"}}}
{"smiles": "CC(C)OC(=O)N(Cc1ccccc1)Cn1c(C#N)nc2c(Br)cc(C(F)(F)F)cc21", "note": "[Beispiel 57]", "values": [{"measurement": "E.acervulina Oocystenausscheidung in % im Vergleich zur unbehandelten infizierten Kontrolle", "setting": "[1]; Dosis 100 ppm in feed", "value": 38, "unit": "%"}, {"measurement": "E.acervulina Oocystenausscheidung in % im Vergleich zur unbehandelten infizierten Kontrolle", "setting": "[1]; Dosis 250 ppm in feed", "value": "0,01%"}, {"measurement": "E. tenella", "setting": "[2]; Dosis 100 ppm in feed", "value": 93, "unit": "%"}, {"measurement": "E. tenella", "setting": "[2]; Dosis 250 ppm in feed", "value": 0, "unit": "%"}, {"measurement": "E. maxima Oocytenausscheidung in % im Vergleich zur unbehandelten infizierten Kontrolle", "setting": "[3]; Dosis 100 ppm in feed", "value": "5,3%"}, {"measurement": "E. maxima Oocytenausscheidung in % im Vergleich zur unbehandelten infizierten Kontrolle", "setting": "[3]; Dosis 250 ppm in feed", "value": 0, "unit": "%"}]}
{"smiles": "CCCCN(Cn1c(C#N)nc2c(Br)cc(C(F)(F)F)cc21)C(=O)OC", "note": "[Beispiel 37]", "values": [{"measurement": "E.acervulina Oocystenausscheidung in % im Vergleich zur unbehandelten infizierten Kontrolle", "setting": "[1]; Dosis 100 ppm in feed", "value": 28, "unit": "%"}, {"measurement": "E.acervulina Oocystenausscheidung in % im Vergleich zur unbehandelten infizierten Kontrolle", "setting": "[1]; Dosis 250 ppm in feed", "value": "0,5%"}, {"measurement": "E. tenella", "setting": "[2]; Dosis 100 ppm in feed", "value": 32, "unit": "%"}, {"measurement": "E. tenella", "setting": "[2]; Dosis 250 ppm in feed", "value": 0, "unit": "%"}, {"measurement": "E. maxima Oocytenausscheidung in % im Vergleich zur unbehandelten infizierten Kontrolle", "setting": "[3]; Dosis 100 ppm in feed", "value": 26, "unit": "%"}, {"measurement": "E. maxima Oocytenausscheidung in % im Vergleich zur unbehandelten infizierten Kontrolle", "setting": "[3]; Dosis 250 ppm in feed", "value": 0, "unit": "%"}]}
